This passage reports AC50 and IC50 results from ChEMBL document CHEMBL1201862, “PubChem BioAssay data set” (2004).

The source made the active and inactive calls.

Test [1] deals with Dual specificity tyrosine-phosphorylation-regulated kinase 1A (Rattus norvegicus, UniProt Q63470). It counts as biochemical, Homo sapiens.
Test [2] deals with T1, Rac GTPase-activating protein 1 (Homo sapiens, UniProt Q9H0H5).
T1 sequence (Q9H0H5 whole entry): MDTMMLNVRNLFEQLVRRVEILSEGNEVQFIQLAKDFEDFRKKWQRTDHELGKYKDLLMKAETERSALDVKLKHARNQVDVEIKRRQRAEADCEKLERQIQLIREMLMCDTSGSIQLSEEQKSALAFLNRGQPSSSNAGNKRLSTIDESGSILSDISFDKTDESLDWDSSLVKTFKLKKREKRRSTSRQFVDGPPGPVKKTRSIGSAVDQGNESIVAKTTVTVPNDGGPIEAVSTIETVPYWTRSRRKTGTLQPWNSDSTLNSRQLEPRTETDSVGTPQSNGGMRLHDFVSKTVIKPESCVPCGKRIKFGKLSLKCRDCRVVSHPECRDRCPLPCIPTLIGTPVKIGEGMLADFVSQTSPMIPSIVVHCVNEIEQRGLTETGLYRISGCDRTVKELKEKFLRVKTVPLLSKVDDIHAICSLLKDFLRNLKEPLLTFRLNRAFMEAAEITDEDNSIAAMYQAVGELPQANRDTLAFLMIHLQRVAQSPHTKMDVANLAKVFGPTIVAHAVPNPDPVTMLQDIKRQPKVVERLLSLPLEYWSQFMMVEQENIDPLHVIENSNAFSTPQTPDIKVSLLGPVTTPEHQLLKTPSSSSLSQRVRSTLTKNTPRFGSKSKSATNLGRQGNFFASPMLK
The experiment in a line: blockers of MgcRacGAP-driven Rac1 GTP hydrolysis – biochemical, ADP Hunter fluorescence, primary and confirmatory, confirmation (AID 624330). The format is functional.

The target in test [3] is G-protein coupled receptor 55 (Homo sapiens, UniProt Q9Y2T6). The experiment in a line: inhibition of LPI-stimulated GPR55 beta-arrestin translocation – imaging, U2OS, beta-arrestin-GFP, LPI agonist, primary screen (AID 2013).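 Note: antagonist potency measured as reduced agonist-driven arrestin aggregation.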 The format is functional.
G-protein coupled receptor 55, sequence (Q9Y2T6 whole entry): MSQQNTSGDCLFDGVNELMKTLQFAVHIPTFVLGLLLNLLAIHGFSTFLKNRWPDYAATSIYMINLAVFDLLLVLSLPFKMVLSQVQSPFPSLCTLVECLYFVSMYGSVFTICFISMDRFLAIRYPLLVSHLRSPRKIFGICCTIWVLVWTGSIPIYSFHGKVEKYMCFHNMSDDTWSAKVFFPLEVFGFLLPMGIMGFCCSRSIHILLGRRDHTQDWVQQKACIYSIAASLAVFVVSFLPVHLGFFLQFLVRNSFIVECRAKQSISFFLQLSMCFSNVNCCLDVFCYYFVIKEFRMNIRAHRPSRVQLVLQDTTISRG
For test [4], the system named is INS1. The test is described as follows: INS-1E survival protection against cytokine death – cell-based, luminescence, retest, dose response (AID 449756).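 Note: cell death triggered by IL-1 beta plus TNF-alpha plus IFN-gamma mixture; protective hits raise ATP signal compared with cytokine alone wells.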 It counts as functional. As to conditions: Rattus norvegicus.
For test [5], the target named is DNA dC->dU-editing enzyme APOBEC-3A (Homo sapiens, UniProt P31941). The test is described as follows: Dose Response confirmation of small molecule APOBEC3A DNA Deaminase Inhibitors via a fluorescence-based single-stranded DNA deaminase assay. [Related pubchem assays (depositor defined):AID493011, AID493024]. It counts as functional.
DNA dC->dU-editing enzyme APOBEC-3A, sequence (P31941 whole entry): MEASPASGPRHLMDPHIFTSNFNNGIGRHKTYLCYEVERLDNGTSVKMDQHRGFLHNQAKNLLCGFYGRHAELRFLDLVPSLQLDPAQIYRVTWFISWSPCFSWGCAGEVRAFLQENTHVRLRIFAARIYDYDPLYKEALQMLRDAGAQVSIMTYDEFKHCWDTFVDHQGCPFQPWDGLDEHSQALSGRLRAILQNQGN
The target in test [6] is DNA dC->dU-editing enzyme APOBEC-3G (Homo sapiens, UniProt Q9HC16). The format is functional.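 Note: Dose-response counterscreen measuring inhibition of APOBEC3G DNA deaminase activity, run while confirming APOBEC3A inhibitors.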
DNA dC->dU-editing enzyme APOBEC-3G, sequence (Q9HC16 whole entry): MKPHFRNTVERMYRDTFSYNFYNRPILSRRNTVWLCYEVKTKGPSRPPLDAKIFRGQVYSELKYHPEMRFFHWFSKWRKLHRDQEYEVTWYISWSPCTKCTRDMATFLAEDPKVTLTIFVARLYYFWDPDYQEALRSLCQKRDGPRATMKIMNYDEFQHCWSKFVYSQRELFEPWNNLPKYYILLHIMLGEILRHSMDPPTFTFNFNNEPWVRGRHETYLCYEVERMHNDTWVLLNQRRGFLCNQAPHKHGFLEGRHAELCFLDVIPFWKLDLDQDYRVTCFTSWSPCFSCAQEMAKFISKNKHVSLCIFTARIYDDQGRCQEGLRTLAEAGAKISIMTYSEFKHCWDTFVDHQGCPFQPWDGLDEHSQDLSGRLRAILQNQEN
For test [7], the target named is SUMO-activating enzyme (Homo sapiens, UniProt Q9UBT2). The test is described as follows: blockers of UBC9-mediated SUMO conjugation – biochemical, AlphaScreen, SUMOylation inhibitor project, confirmation (AID 2018). The format is functional. On the technique in general: Bead proximity is the source of the signal in Alpha formats.
SUMO-activating enzyme, sequence (Q9UBE0 whole entry): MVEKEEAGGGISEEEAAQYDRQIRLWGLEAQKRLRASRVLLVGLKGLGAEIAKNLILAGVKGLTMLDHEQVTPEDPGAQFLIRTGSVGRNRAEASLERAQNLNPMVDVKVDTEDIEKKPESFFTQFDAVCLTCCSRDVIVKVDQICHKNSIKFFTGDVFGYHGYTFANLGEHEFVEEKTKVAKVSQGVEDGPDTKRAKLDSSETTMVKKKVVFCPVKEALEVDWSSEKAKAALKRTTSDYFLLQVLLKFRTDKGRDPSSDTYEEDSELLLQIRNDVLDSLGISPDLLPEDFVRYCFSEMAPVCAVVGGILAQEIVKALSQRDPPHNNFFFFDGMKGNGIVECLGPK
SUMO-activating enzyme, sequence (Q9UBT2 whole entry): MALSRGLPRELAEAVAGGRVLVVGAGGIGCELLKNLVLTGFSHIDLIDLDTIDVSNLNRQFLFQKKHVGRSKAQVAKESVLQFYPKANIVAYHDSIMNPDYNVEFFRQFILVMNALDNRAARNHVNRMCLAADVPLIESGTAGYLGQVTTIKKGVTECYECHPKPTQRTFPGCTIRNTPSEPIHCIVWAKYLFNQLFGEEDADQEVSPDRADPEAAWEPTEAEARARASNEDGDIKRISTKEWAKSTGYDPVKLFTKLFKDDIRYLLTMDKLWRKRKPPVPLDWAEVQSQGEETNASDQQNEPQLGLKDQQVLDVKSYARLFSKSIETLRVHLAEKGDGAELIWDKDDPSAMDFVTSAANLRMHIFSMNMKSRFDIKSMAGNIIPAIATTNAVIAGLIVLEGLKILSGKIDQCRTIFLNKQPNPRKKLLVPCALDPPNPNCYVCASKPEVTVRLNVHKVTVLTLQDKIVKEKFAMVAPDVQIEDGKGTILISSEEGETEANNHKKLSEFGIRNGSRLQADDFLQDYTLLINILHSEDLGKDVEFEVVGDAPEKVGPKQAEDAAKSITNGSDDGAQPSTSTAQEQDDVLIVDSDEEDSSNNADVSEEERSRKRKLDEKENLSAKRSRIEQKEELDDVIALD

`COc1cc(/C=C2\Oc3cc(O)ccc3C2=O)ccc1O`: the AC50 – broadly, the concentration giving half of the maximal activity seen – in test [1] is 0.641 µM (active). Moreover, the IC50 – broadly, the concentration that inhibits the measured activity by half – in test [2] was 26 µM (active).

On to `Cc1ccccc1-c1cc(C(=O)Nc2sc(C)c(C)c2C(N)=O)c2ccccc2n1`, for which the IC50 in test [3] was 2.76 µM (active). Also, the AC50 in test [4] is 5.87 µM (active).

On to `C[N+](C)(C)CCCNC(=O)c1ccc(C=NO)nc1`, for which the IC50 was 2.7 µM (active) in test [5] and 4.16 µM (active) in test [6].

Consider `COc1ccc([N+](=O)[O-])cc1CSc1ccccn1`, for which the IC50 is 8.44 µM (active) in test [5] and 7.41 µM (active) in test [6].

As for `COc1ccc(/C=C/C(=O)O)cc1` [4-METHOXYCINNAMIC ACID], the AC50 in test [1] was 21 µM (active).

As for `CC12CCC(C(=O)Nc3nc4ccc(Br)cc4s3)(OC1=O)C2(C)C` (stereo not drawn), in test [1], the AC50 was 1.36 µM (active).

`COc1ccc(-c2nnc(SCC(=O)Nc3cc(C)on3)[nH]2)cc1`: the IC50 in test [7] was > 100 µM (inactive).

Regarding `CCCc1n(CC(O)COC2CCCCC2)c2ccccc2[n+]1CC` (stereo not drawn), the values for the IC50 in test [5] and in test [6] were 3.26 µM (active) and 3.93 µM (active), respectively.
